Experimental findings from ChEMBL document CHEMBL3988442, “University of Dundee, Small-Polar-MMV Screening Library” (2021) are described below.

SMILES strings stand for the structures.

Test [1] can be described thus: microbe, parasite or virus in culture. The note with it: Mycobacterium tuberculosis, 72 h, read-out: pIC50 (converted).
A short description of test [2]: microbe, parasite or virus in culture. The note with it: Mycobacterium tuberculosis, 96 h, read-out: pIC50 (converted).

Turning to `NCCCc1nc2ccccc2o1`, the values for the IC50 in test [1] and in test [2] were 211 µM and 255 µM, respectively.

In the case of `CCOc1ccc(Cn2nc(COC)oc2=O)nc1`, the IC50 in test [1] is 246 µM; in test [2] it was 19.1 µM.

As for `COc1cccc(OC2CNC2)c1`, the IC50 in test [1] and in test [2] was > 501 µM throughout.

For `O=C(c1ccno1)N1CCCC(c2ncncc2-c2ccncc2)C1` (stereo not given), the IC50 in test [1] and in test [2] was > 50.1 µM throughout.

On to `NCc1noc2c1CCCC2`, for which the IC50 in test [1] and in test [2] was > 501 µM each time.

As for `CN(C(=O)CC1=CCCCC1)C1CCCN(C2Cc3ccccc3C2)C1` (stereo not given), the IC50 in test [1] and in test [2] was > 50.1 µM each time.

Turning to `CC(=O)N1CCC(C(=O)c2ccc(C)cc2)CC1`, the IC50 in test [1] is 100 µM; in test [2], > 501 µM.

As to `Cc1cnn(CCNCCCOc2ccc3c(c2)OCO3)c1`, the IC50 in test [1] was 13.9 µM; in test [2], 13.6 µM.

Regarding `CCN1C[C@@H]2[C@@H](OC)CCN(C(=O)Cc3ccsc3)[C@@H]2C1`, the IC50 in test [1] and in test [2] was > 50.1 µM each time.

As for `C=C(Br)Cn1c(CO)nc2ccccc21`, the IC50 in test [1] and in test [2] was > 501 µM in each case.

Consider `c1ccc(NC2CCN(C3CCCC3)C2)nc1` (stereo not given), for which the IC50 in test [1] and in test [2] was > 501 µM throughout.

On to `COCC(=O)NCc1noc(-c2cccc(C)c2)n1`, for which the figures for the IC50 in test [1] and in test [2] were 265 µM and 160 µM, respectively.

As for `CCOC1COC2(CCN(Cc3ccc4c(c3)OCO4)CC2)C1` (stereo not given), the IC50 in test [1] and in test [2] was > 50.1 µM in each case.

Consider `CCNC(=O)NC(c1ccc2c(c1)OCCO2)C(C)C` (stereo not given), for which the IC50 in test [1] and in test [2] was > 501 µM in each case.

Regarding `Cc1nc(C2CN(Cc3ccc(F)cc3Br)CCO2)no1` (stereo not given), the IC50 in test [1] was 33 µM; in test [2] it was 11.2 µM.

As for `COc1ccc(CCSc2nnc[nH]2)cc1`, the results for the IC50 in test [1] and in test [2] were 142 µM and 111 µM, respectively.

In the case of `CC(C)c1ccc(CN2C(=O)C3(CCNCC3)Nc3ccccc32)cc1`, the IC50 in test [1] is 32 µM; in test [2] it was 22.3 µM.

As to `CCC(C)(C)NC(=O)c1nn(-c2ccccc2)nc1C`, the figures for the IC50 in test [1] and in test [2] were 199 µM and 298 µM, respectively.

As to `OCCC1CCN(Cc2ccccc2)C1` (stereo not given), the IC50 in test [1] and in test [2] was > 501 µM throughout.

With `CC1CCCCN1S(=O)(=O)c1ccc(CCN)cc1` (stereo not given), the IC50 in test [1] and in test [2] was > 501 µM each time.

Take `O=C(NCc1ccc2c(c1)OCO2)N1CCCCC1`: the IC50 in test [1] is 139 µM; in test [2] it was 43.3 µM.

As for `COc1c(CNCCS(C)(=O)=O)c(C(C)C)nn1C`, the IC50 in test [1] and in test [2] was > 501 µM each time.

Regarding `CCc1nnc(NC(=O)N(CCOC)Cc2ccc(C)o2)s1`, the IC50 in test [1] and in test [2] was > 50.1 µM in each case.

For `O=C(Nc1cccnc1N1CCC(CO)CC1)C1CC1`, the IC50 in test [1] was > 501 µM; in test [2], 53.6 µM.

In the case of `COCCN1CCCC(Nc2ccc(Cl)cn2)C1` (stereo not given), the IC50 in test [1] was 145 µM; in test [2], 172 µM.

As for `COc1cc(C(=O)NC[C@@H](O)c2ccc(C)cc2)on1`, the IC50 in test [1] is 488 µM; in test [2] it was > 501 µM.

For `O=S(=O)(CCNc1ccccn1)NCC1CCC1`, the results for the IC50 in test [1] and in test [2] were 307 µM and 213 µM, respectively.

With `CCn1nc(C)cc1C(=O)Nc1ccnc(N(C)C)n1`, the results for the IC50 in test [1] and in test [2] were 96.2 µM and > 501 µM, respectively.

Take `CC(C)OCCS(=O)(=O)N(C)Cc1ccco1`: the IC50 in test [1] is 110 µM; in test [2], 104 µM.

With `COc1ccnc(NCc2ccc(CO)c(F)c2)n1`, the IC50 in test [1] and in test [2] was > 501 µM throughout.

As for `Cn1nnnc1NCc1cccc(Cl)c1Cl`, the IC50 in test [1] and in test [2] was > 501 µM throughout.

As for `CNCC(O)CN1CCc2ccccc2CC1` (stereo not given), the IC50 in test [1] is 254 µM; in test [2] it was 289 µM.

In the case of `CC1COC2(CCN(C(=O)c3ccc(Cl)s3)CC2)O1` (stereo not given), the IC50 in test [1] was 25.7 µM; in test [2] it was 45.1 µM.

For `CSc1cccc(CN(C)C(=O)CNC2CC2)c1`, the IC50 is 297 µM in test [1] and > 501 µM in test [2].

As to `O=C(CNC1CC1)NC[C@H]1CCc2ccccc2O1`, the values for the IC50 in test [1] and in test [2] were 130 µM and 156 µM, respectively.

As to `Cc1ccc(S(=O)(=O)NC(CN)C2CC2)c(F)c1` (stereo not given), the IC50 in test [1] and in test [2] was > 501 µM throughout.

For `COc1coc(CN2CCCC(CCc3ccccc3C)C2)cc1=O` (stereo not given), the IC50 in test [1] is 16.1 µM; in test [2], 16.2 µM.

As to `Cc1cc(C(=O)N2CCC(C(N)=O)C2)cc(Cl)c1Br` (stereo not given), the results for the IC50 in test [1] and in test [2] were 180 µM and 262 µM, respectively.

In the case of `Cc1ccc(OC(C)CN)cc1` (stereo not given), the results for the IC50 in test [1] and in test [2] were 77 µM and 166 µM, respectively.

Regarding `COc1cccc(-c2noc(-c3ccc(NCC(C)O)nc3)n2)c1OC` (stereo not given), the IC50 in test [1] was > 50.1 µM; in test [2] it was 19.4 µM.

In the case of `Cc1nc(-c2c[nH]c(C(=O)N3CCCC3)c2)cs1`, the IC50 in test [1] was 241 µM; in test [2], 427 µM.

For `CN(C)S(=O)(=O)N1CCCC1c1ccccc1Br` (stereo not given), the IC50 in test [1] was 206 µM; in test [2], 273 µM.

Take `FC(F)(F)c1ccc(OC2CCNCC2)nc1`: the IC50 is 189 µM in test [1] and 230 µM in test [2].

Consider `CCCn1nnnc1NCc1ccc(F)cc1`, for which the IC50 in test [1] is 37.8 µM; in test [2], 19.8 µM.

As to `CCC(CNS(=O)(=O)N(C)CC)c1ccccc1` (stereo not given), the values for the IC50 in test [1] and in test [2] were 249 µM and > 501 µM, respectively.

`Clc1ccc(CSc2cnn[nH]2)s1`: the IC50 in test [1] is 236 µM; in test [2], 267 µM.

For the compound `CCc1cn[nH]c1C1CCN(c2cc(C)c3cccc(OC)c3n2)CC1`, the values for the IC50 in test [1] and in test [2] were 22.2 µM and > 50.1 µM, respectively.

Consider `CC(C)[C@@H]1CN(C(=O)NCc2ccco2)C[C@H]1N(C)C`, for which the IC50 in test [1] and in test [2] was > 50.1 µM throughout.

As for `CSCCC(CO)NC(=O)c1occc1C(C)C` (stereo not given), the IC50 was 258 µM in test [1] and > 501 µM in test [2].

`Cc1nonc1NC(=O)CCn1cc(Br)ccc1=O`: the IC50 in test [1] and in test [2] was > 50.1 µM throughout.

With `COC(=O)C1CC(c2ccccc2)=NO1` (stereo not given), the IC50 in test [1] and in test [2] was > 501 µM in each case.

Regarding `O=C(NCc1ccc2c(c1)OCO2)Nc1nccs1`, the IC50 in test [1] and in test [2] was > 501 µM in each case.

Regarding `CN(Cc1ccsc1)Cc1ccc(S(=O)(=O)N(C)C)o1`, the values for the IC50 in test [1] and in test [2] were > 501 µM and 86.4 µM, respectively.

Turning to `CCOC(=O)CCC(=O)c1ccc2c(c1)OCCO2`, the IC50 is 209 µM in test [1] and 199 µM in test [2].

In the case of `Cc1cc2[nH]c(O)nc2cc1NCc1ccc(F)cc1`, the IC50 in test [1] was 24.3 µM; in test [2], > 50.1 µM.

Turning to `COc1cccc(CCC(=O)N2CCCC2)c1`, the results for the IC50 in test [1] and in test [2] were 2.73 µM and 8 µM, respectively.

For the compound `COc1cccc(S(=O)(=O)CCN2CCCC2CO)c1` (stereo not given), the IC50 in test [1] was 462 µM; in test [2], 141 µM.

`N#CCOC(=O)c1ccc2c(c1)OCCCO2`: the IC50 in test [1] is > 501 µM; in test [2] it was 182 µM.

For the compound `CC(c1nc(-c2ccccn2)no1)N1CCSCC1` (stereo not given), the IC50 in test [1] is 86.8 µM; in test [2], 115 µM.

In the case of `O=C1CN(CC(=O)N2CCCCCCC2)CCN1`, the IC50 in test [1] and in test [2] was > 501 µM in each case.
